Laboratory results reported in article PMC12734371, “Synthesis, Anti-Tumour, and Antibacterial Activities of Monocarbonyl Curcumin Analogues of Piperidones” (International Journal of Molecular Sciences, 2025).

Tests used:
[1] = system: A549 cells; test: CCK-8 growth inhibition (dose and time action curves); assay type: cell-based, human; details: different concentrations, 4-72 h
Description: A549 cells in the logarithmic growth phase and in a good growth state were collected. After routine digestion and centrifugation, the cells were diluted with DMEM low-glucose complete medium, suspended in a single cell state, and inoculated in 96-well plates. Each well was inoculated with 100 μL cell suspension containing 5 × 10^3 cells. The 96-well plate was shaken to disperse the cells evenly at the bottom of the cell orifice plate, and the cells were cultured in the cell incubator for 24 h. The old medium was discarded, complete medium containing different concentrations of liquid medicine was added, and the culture continued in the cell culture incubator. At 4, 6, 12, 24, 48, and 72 h, the old medium was discarded and 100 μL of medium containing 10% CCK-8 was added. The medium was placed in the cell incubator and continued to incubate for 2 h. The OD value was measured at 450 nm with an enzyme calibration and the inhibition rate of different compounds at different concentrations was calculated. GraphPad Prism 8.0 was used to plot the inhibition rate of cell growth at different concentrations of the five major compounds. The drug duration curves were plotted with time as the X-axis and inhibition rate as the Y-axis.

[2] = system: A549 cells; test: Cell wound scratch assay (migration); assay type: cell-based, human; details: 6 h; high, medium, and low concentrations
Description: A549 cells in logarithmic phase were digested with 0.25% trypsin and blown to single cell suspension with a dropper. The cell density was adjusted to 5 × 10^5 cells/mL. The cells were inoculated on 6-well plates, 2 mL per well, and cultured in a cell incubator at 37 °C, 5% CO2, and saturated humidity for 24 h until the gaps were basically fused. A 10 μL micro pipette tip was used to scratch vertically in a 6-well plate. After washing with PBS solution 3 times, the drug-containing medium was added, 2 mL per well, and three wells were set in each group. The culture plates were placed in a 5% CO2 incubator at 37 °C for 6 h and 24 h and observed and photographed with an inverted fluorescence microscope. The images were obtained by NIS Elements Viewer 4.2.0, and the scratch area and width were calculated. The cell migration rate was calculated by Formula (2):[Cell migration rate (%) = (0 h scratch area − scratch area at different times)/0 h scratch area × 100%](2)

[3] = system: L02 cells; test: MTT assay, toxicity to human normal liver cells; assay type: cell-based; details: 24 h, mean ± s, n = 3
Description: The cells were passaged to the fourth generation of L02 cells, and the cell suspension containing about 5 × 10^3 cells was added to each well of the 96-well plate and cultured in a cell culture incubator for 24 h. The old medium was discarded, and different concentrations of liquid medicine (6 porous and 3 plates for each concentration) were added and incubated for 24 h. The old medium was discarded, 10% of 5 mg/mL MTT working solution was added in the dark, and the cells were incubated in a cell incubator for 4 h. The old medium was discarded, 100 μL DMSO was added to each well, and 100 RPM was oscillated on an air shaker for 10 min. The OD value was measured at 490 nm with a multifunctional microplate reader. According to the OD value, the inhibition rate of different piperidone monocarbonyl curcumin analogues on L02 cells was calculated according to Formula (1), and IC50 was calculated by Graph Pad Prism 8.0.

[4] = system: A549 cells; test: MTT assay, inhibition of tumour cell growth; assay type: cell-based, human; details: 24 h, mean ± s
Description: (§1) The tumour cell suspension in logarithmic growth phase, containing about 5 × 10^3 cells, was taken and seeded onto a 96-well plate and gently shaken to disperse the cells evenly at the bottom of the plate. The cells were incubated in a constant temperature (37 °C) incubator for 24 h. The old medium was discarded, and 100 μL of the prepared working solution of piperidinone monocarbonyl curcumin analogues at different concentrations was added, and the cells were incubated in a constant temperature incubator for 24 h. Blank medium wells, blank cell wells, and 0.9% DMSO (highest content) wells were set up, with 6 multi-well and 3 multi-plates for each concentration. The discarded old medium was absorbed, and 100 μL of 10% 5 mg/mL MTT working solution was added to each well (operated away from light) and placed in a cell incubator for further incubation for 4 h. The old medium was discarded, and 100 μL of DMSO was added to each well and shaken in an air shaker at 100 RPM for 10 min. The absorbance of the OD value was measured at 490 nm by a multifunctional microplate analyzer. According to Formula (1), the inhibition rates of different piperidones monocarbonyl curcumin analograms on 4 tumour cells were calculated, and IC50 was calculated by GraphPad Prism 8.0:Inhibition rate (%) = (OD blank cell group − OD administration group)/OD blank cell group(1)

[5] = system: MCF-7 cells; test: MTT assay, inhibition of tumour cell growth; assay type: cell-based, human; details: 24 h, mean ± s, n = 3
Description: as §1

[6] = system: Hela cells; test: MTT assay, inhibition of tumour cell growth; assay type: cell-based, human; details: 24 h, mean ± s, n = 3
Description: as §1

[7] = system: HepG2 cells; test: MTT assay, inhibition of tumour cell growth; assay type: cell-based, human; details: 24 h, mean ± s, n = 3
Description: as §1

[8] = system: A549 cells; test: Flow cytometry apoptosis (Annexin V/PI); assay type: cell-based, human; details: 24 h; 5, 2.5, 1.25 μmol/L
Description: The A549 cells in logarithmic growth phase were inoculated in 6-well plates at 1 × 10^6 cells. After resting in the incubator for 24 h, the cells were treated with different concentrations of drugs. The blank control group was added with the medium with the highest concentration of DMSO. After 24 h of culture, cells were collected, washed with PBS, transferred to a flow tube, and resuspended with 100 μL of 1 × Annexin V conjugate. Add 4 μL YF4/88-Annexin N and 5 μL PI working solution. The cells were incubated in the dark at room temperature for 10 min, transferred to a flow cytometer tube, added with 200 μL of 1 × Annexin V conjugate, and immediately detected by flow cytometry.

[9] = system: ERK (extracellular regulated protein kinases); test: Western blot, ERK level in A549 cells; assay type: cell-based, human; details: 10, 5, 2.5 μmol/L, 24 h
Description: (§2) A549 cells in logarithmic growth phase were seeded in 6-well plates at 1 × 10^6 cells/mL per well. The cells were cultured overnight in an incubator. Different concentrations of drug-containing medium of 2,5-2Cl, 2Br-5Cl, 2-Cl, 2-F, benzaldehyde ([…]), curcumin (20 μmol/L), and cisplatin (30 μmol/L) were added, and the blank control […] The RIPA cell lysis buffer containing protease inhibitors was added to the Petri dish to collect the proteins of each experimental group, and the supernatant was collected as a protein sample after ultrasonic centrifugation. Protein quantification was performed by the BCA method. A total of 20 μg protein was separated by 10% SDS-PAGE, and then the protein was transferred to a PVDF membrane. The membrane was blocked with 5% skim milk for 1 h, and the corresponding primary antibody was incubated at 4 °C overnight. After washing the membrane three times with TBST, the bands were incubated with the corresponding secondary antibodies at room temperature for 1 h. After cleaning the membrane with TBST 3 times, the darkroom was developed with ECL luminescence. Using GAPDH as an internal reference, the protein bands were analyzed by ImageJ 1.8.0.

[10] = system: A549 cells; test: Cell morphology by inverted microscope; assay type: cell-based, human; details: 5 μmol/L, 24 h
Description: The cells were inoculated in a 6-well plate, and about 1 × 10^6 A549 cells in the logarithmic growth phase were inoculated in each well. After the cells were cultured in a constant temperature incubator for 24 h, the old medium was discarded, and five kinds of piperidone monocarbonyl curcumin analogue solution (5, 10, and 20 μmol/L), curcumin (10, 20, and 40 μmol/L), and 0.9% DMSO were added as the blank control group for 24 h, and then the cell morphology was observed by inverted microscope (200×).

[11] = system: AKT (protein kinase B); test: Western blot, AKT level in A549 cells; assay type: cell-based, human; details: 10, 5, 2.5 μmol/L, 24 h
Description: as §2

Row | Compound | Inhibition of A549 cell growth (CCK-8) [1] | Cell migration rate vs blank control (0.9% DMSO) [2] | IC50 [3] [µM] | IC50 ([4]; n = 3) [µM] | IC50 ([4]; n = 3, listed as benzaldehyde) [µM] | IC50 [5] [µM] | IC50 [6] [µM] | IC50 [7] [µM] | Apoptosis-inducing effect on A549 cells [8] | ERK protein level vs control group [9] | Cell morphology [10] | Expression level of AKT protein vs control group [11]
1 | 3,5-Dibenzylidene-4-piperidone [Benzaldehyde] | weak at low concentrations | no statistical difference | 52.4 ± 1.89 | 4.66 ± 2.39 | < 5 | 5.88 ± 1.44 | 12.4 ± 2.91 | 10.3 ± 1.88 |  |  |  | 
2 | O=C1C(=Cc2cc(Cl)ccc2Cl)CNCC1=Cc1cc(Cl)ccc1Cl [2,5-2Cl] |  | no statistical difference | 48.6 ± 3.59 | 2.87 ± 2.09 |  | 4.72 ± 1.48 | 6.62 ± 2.1 | 9.66 ± 1.09 | strongest | significantly lower | most of the cells became round and loose | most obvious
